# “And” between values parts separate entries of the source, which are not always exact repeats. Equal values may be shown once. Square brackets hold non-standard residues; d marks the D form. Peptide text beside a SMILES is read from it.
# Tests used:
# [1] = molecular target: T1, endothelin receptor (membrane of smooth muscle tissue of porcine aorta) (Sus scrofa, UniProt Q29010); assay: Endothelin binding inhibition test (125I-endothelin-1, porcine aorta smooth muscle membrane); conditions: 1.1 μM of the test compound, porcine aorta smooth muscle membrane, 25° C, 4 hours; for inhibition at 1.1 µM: read-out: 125I-endothelin-1 binding inhibition, Inhibition (%)
# T1 construct: from tissue; host or cells: smooth muscle tissue of porcine aorta (membrane fraction)
# T1 sequence (Q29010 21-427): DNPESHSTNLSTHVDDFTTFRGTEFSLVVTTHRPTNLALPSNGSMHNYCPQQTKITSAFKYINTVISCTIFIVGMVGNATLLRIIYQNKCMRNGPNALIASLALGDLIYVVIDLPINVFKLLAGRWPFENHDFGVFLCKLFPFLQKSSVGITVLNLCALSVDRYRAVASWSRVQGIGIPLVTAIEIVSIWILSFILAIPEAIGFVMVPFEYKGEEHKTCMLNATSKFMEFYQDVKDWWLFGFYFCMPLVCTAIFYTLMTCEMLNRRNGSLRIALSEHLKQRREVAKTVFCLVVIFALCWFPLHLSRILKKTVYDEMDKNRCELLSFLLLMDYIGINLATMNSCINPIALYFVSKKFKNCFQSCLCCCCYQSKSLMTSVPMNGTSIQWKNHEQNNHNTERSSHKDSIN
# In short: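 Porcine aortic smooth muscle membranes incubated with ^125I-endothelin-1 (12000-18000 cpm) and test compound at 1.1 μM final in Tris/HCl pH 7.4 with protease inhibitors and 0.1% BSA, 4 h at 25 °C. Filter-bound radioactivity counted, nonspecific binding defined with 0.2 μM endothelin-1; % binding inhibition in triplicate.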
# [2] = system: mice (endotoxin-induced mortality); assay: Endotoxin shock: endotoxin-induced mortality in mice; assay type: in vivo, mouse; conditions: for Survived number/number of the tested animals / survival rate (%): compound 100 × 2 mg/kg i.p.
# Method: (§1) Activities against an endotoxin shock
# (§2) To a male ddy mouse, endotoxin (Lipopolysaccharide derived from E. coli 055:B5) dissolved in a 0.15% sodium hydrogencarbonate aqueous solution, was intravenously administered via the tail vein at a dose of 30 mg/kg, whereupon a distinct body temperature lowering effect was observed.
# The intravenous administration of endotoxin via the tail vein at a high dose (100 mg/kg) killed mice in all cases (10/10) within 48 hours.
# [3] = system: male ddy mouse (endotoxin-induced body temperature lowering); assay: Endotoxin shock: endotoxin-induced body temperature lowering in mice; assay type: in vivo; conditions: endotoxin 30 mg/kg i.v., compound 100 mg/kg i.p. 30 minutes prior to and 30 minutes subsequent to endotoxin
# Method: as §1, §2
# [4] = system: isolated porcine coronary artery (endothelin-1-induced contraction); assay: Activities against endothelin-induced contraction of isolated porcine coronary arteries; set-up: species or system pig; conditions: for shift of the concentration-response curve of endothelin-1: added 20 minutes prior to endothelin-1
# Method: Activities against endothelin-induced contraction of isolated procine coronary arteries
# The coronary artery of pig was extracted, and a spiral preparation having a width of 1 mm and a length of 10 mm was prepared therefrom. The preparation having the endothelial cells denuded, was hanged in a 5 ml organ bath filled wit a Krebs.Henseleit solution saturated with a gas mixture of 95% O2 and 5% CO2, and the change in the tension was isometrically measured and recorded.
# (§3) Endothelin-1 was added into the organ bath in a cumulatively increasing manner, whereby the influence of the compound of the present invention to the concentration-response curve for endothelin-1 was examined. The compound of the present invention was added into the organ bath 20 minutes prior to the addition of endothelin-1.
# [5] = system: isolated guinea pig trachea (endothelin-1-induced contraction); assay: Activities against endothelin-induced contraction of isolated guinea pig trachea; conditions: for shift of the concentration-response curve for endothelin-1: added 20 minutes prior to endothelin-1
# Method: Activities aqainst endothelin-induced contraction of isolated guinea pig trachea
# The trachea of a guinea pig was extracted, and the trachea was cut into rings to afford the preparation. A preparation having the endothelial cells denuded, was hanged in a 5 ml organ bath filled with a Krebs.Henseleit solution saturated with a gas mixture of 95% O2 and 5% CO2, and the change in the tension was isometrically measured and recorded.
# as §3, with “manner, and” for “manner, whereby”, “for endothelin” for “for endothelin-1”
# [6] = system: isolated porcine basilar artery (endothelin-1-induced contraction); assay: Activities against endothelin-induced contraction of isolated porcine basilar artery; set-up: species or system pig; conditions: compound 2 μM
# Method: Activities aqainst endothelin-induced contraction of isolated porcine basilar artery
# The arteria basilaris of pig was extracted, and then a ring preparation with a width of 4 mm was prepared. After denuded the endothelial cells, the preparation was hanged in a 5 ml organ bath filled with a Krebs.Henseleit solution saturated with a gas mixture of 95% O2 and 5% CO2, and the change in the tension was isometrically measured and recorded.
# as §3
# [7] = system: isolated rat heart (endothelin-1-induced increase of perfusion pressure); assay: Effects on the increased perfusion pressure induced by endothelin in isolated rat heart
# Method: Effects on the increased perfusion pressure induced by endothelin in isolated rat heart
# The heart of a male Sprague Dohrie (SD) rat was extracted, and the perfusion pressure was measured and recorded by a Langendorff's method. The perfusion pressure was evaluated on the basis that the state where a Krebs.Henseleit solution saturated with a gas mixture of 95% O2 and 5% CO2 was infused at a rate of 10 ml/min, was taken as a standard.
# Endothelin-1 was cumulatively added to the perfusate, whereby the influence of the compound to the concentration-response curve for endothelin-1 was examined. The compound of the present invention which was dissolved in the perfusate had been infused from 20 minutes prior to the addition of endothelin-1 till just after finishing measurement of the concentration-response curve for endothelin-1.
# [8] = 24 hr after endotoxin (100 mg/kg i.v.)
# [9] = 48 hr after endotoxin (100 mg/kg i.v.)
# [10] = 96 hr after endotoxin (100 mg/kg i.v.)
compound,measurement,setting,value
"CC(C)C[C@@H]1NC(=O)[C@@H](C(C)C)NC(=O)[C@@H]2CCCN2C(=O)[C@@H](CC(=O)O)NC(=O)[C@@H](Cc2c[nH]c3ccccc23)NC1=O [Example 15, cyclo(-DTrp-DAsp-Pro-DVal-Leu-)] (cyclo(L[dW][dD]P[dV]))",inhibition at 1.1 µM,[1],85%
same,Survived number/number of the tested animals,[2]; [8],10/10
same,survival rate (%),[2]; [8],100%
same,Survived number/number of the tested animals,[2]; [9],6/10
same,survival rate (%),[2]; [9],60%
same,Survived number/number of the tested animals,[2]; [10],five cases out of ten cases survived and 5/10
same,survival rate (%),[2]; [10],50%
same,effect on endotoxin-induced mortality,"[2]; endotoxin 100 mg/kg i.v., compound 100 mg/kg i.p. 30 minutes before and after endotoxin",a distinct reduction in the mortality was observed
same,effect on the endotoxin-induced body temperature lowering,[3],showed remarkable antagonistic activities against the endotoxin-induced body temperature lowering effect
same,effect on the maximum response to endothelin-1,[4]; compound 2 μM,did not affect the maximum response
same,shift of the concentration-response curve of endothelin-1,[4]; compound 2 μM,remarkably shifted the concentration-response curves of endothelin-1 to the right
same,effect on the maximum response to endothelin-1,[5]; compound 2 μM,did not affect the maximum response
same,shift of the concentration-response curve for endothelin-1,[5]; compound 2 μM,remarkably shifted the concentration-response curves for endothelin-1 to the right
cyclo(-DTro-DCys(O3 Na)-Pro-DVal-Leu-) [Example 3],"125I-endothelin-1 binding inhibition, Inhibition (%)",[1],85%
same,effect on the maximum response to endothelin-1,[6],did not affect the maximum response
same,shift of the concentration-response curve for endothelin-1,[6]; added 20 minutes prior to endothelin-1,remarkably shifted the concentration-response curve for endothelin-1 to the right
same,effect on the maximum response to endothelin-1,[4]; compound 2 μM,did not affect the maximum response
same,shift of the concentration-response curve of endothelin-1,[4]; compound 2 μM,remarkably shifted the concentration-response curves of endothelin-1 to the right
same,effect on the maximum response to endothelin-1,[5]; compound 6 μM,did not affect the maximum response
same,shift of the concentration-response curve for endothelin-1,[5]; compound 6 μM,remarkably shifted the concentration-response curves for endothelin-1 to the right
same,effect on the maximum response to endothelin-1 (perfusion pressure),[7]; compound 1 μM,did not affect the maximum response
same,shift of the concentration-response curve for endothelin-1 (perfusion pressure),"[7]; compound 1 μM in the perfusate from 20 minutes prior to endothelin-1, Langendorff",moved the concentration-response curve for endothelin-1 to the right
"CC(C)C[C@@H]1NC(=O)[C@@H](C(C)C)NC(=O)[C@H](C)NC(=O)[C@@H](CC(=O)O)NC(=O)[C@@H](Cc2c[nH]c3ccccc23)NC1=O [Example 12, cyclo(-DTrp-DAsp-Ala-DVal-Leu-)] (cyclo(A[dV]L[dW][dD]))",inhibition at 1.1 µM,[1],75%
same,effect on the maximum response to endothelin-1,[4]; compound 3 μM,did not affect the maximum response
same,shift of the concentration-response curve of endothelin-1,[4]; compound 3 μM,remarkably shifted the concentration-response curves of endothelin-1 to the right
"CC[C@H](C)[C@@H]1NC(=O)[C@@H](C(C)C)NC(=O)[C@@H]2CCCN2C(=O)[C@@H](CC(=O)O)NC(=O)[C@@H](Cc2c[nH]c3ccccc23)NC1=O [Example 40, cyclo(-DTrp-DAsp-Pro-DVal-Ile-)] (cyclo(I[dW][dD]P[dV]))",inhibition at 1.1 µM,[1],66%
